Measured values: patent US12310975B2, “Modulators of BCL6 proteolysis and associated methods of use” (Arvinas Operations, Inc., priority 2019, dated 2025)

Target: BCL6 (Homo sapiens (Human), UniProt P41182)
Assay: BCL6 TR-FRET assay (BCL6-Avitag-Biotin / BCoR-Cy5 peptide)
Format: binding
Conditions: read-out: IC50
Method: Protein Synthesis. BCL6 protein was expressed by transforming Invitrogen One Shot cells with GS63525 pET24a-His-SUMO-TEV-BCLm-Avitag plasmid following manufacturer's instructions. In addition, biotin at a final concentration of 50 μM, and IPTG at a final concentration of 1 mM was added to the culture and incubated at room temperature shaking overnight.
Assay buffer A: 50 mM HEPES pH 7.5, 125 mM NaCl, 0.01% TritonX.
Assay buffer B (made fresh): buffer A+1 mM Glutathione (or 0.5 mM DTT).
Assay buffer C (made fresh): buffer B+0.03% BSA.
Black Proxy plates, 96 well.
15 μl final reaction volumes (BCoR-Cy5 100 nM, SA-Eu 2 nM, BCL6-avitag 2 nM).
[…] BCL6-Avitag-Biotin stock: made fresh by adding 2 μl of BCL6-Avitag-Biotin to 31.5 ml Buffer C.
1 mM BCoR-Cy5 peptide (LifeTein) stock in Dimethylformamide (DMF).
300 nM BCoR-Cy5 working stock: made fresh by adding 4.5 μl of the 1 mM BCoR-Cy5 peptide stock to 15 ml Buffer B.
10 μM Eu-Streptavidin (Lance Eu-W1024 Streptavidin, PerkinElmer) stock solution.
6 nM Eu-Streptavidin working stock: made fresh by adding 9 μl Eu-Streptavidin stock solution to 15 ml Buffer A.
Compounds were diluted to 10 mM. Twenty microliters of DMSO was aliquoted to each well of the microtiter plates. From the 10 mM compound stock, 8.7 ul was aliquoted to the 20 ul DMSO and 3-fold serial dilutions (12 pt 3-0.01 uM tritration plate, 96 well, 100% DMSO) performed. Five ul from the titration plate wells was aliquoted to 45 ul Buff C (Intermediate dilution plates, 10% DMSO).
Spot 1.5 μl compound titrations to 384-well plates in duplicate, and spot 3.5 μl [8.5 nM] BCL6-bio protein to each well. The plate was mix briefly, centrifuged, and incubated for 30 minutes at room temperature.
Mix 14 mls of BCoR-Cy5 [300 nM] and 14 mls [6 nM] Eu-Streptavidin. Spot 10 μl BCoR-Cy5/SA-Eu (1:1) mix to each well. The plates were incubated for 2 hours and then read on an Envision plate reader.

| IC50 [nM] | Compound |
| --- | --- |
| ≥ 100 | CNC(=O)COc1cc2cc(Nc3nc(N4CCC(O[C@@H]5C[C@@H](Oc6cccc7c6C(=O)N(C6CCC(=O)NC6=O)C7=O)CN(C)C5)CC4)ncc3Cl)ccc2n(C(C)C)c1=O (stereo partly drawn) [compound 479, 2-[(6-{[5-chloro-2-(4-{[(3R,5R)-5-{[2-(2,6-dioxopiperidin-3-yl)-1,3-dioxo-2,3-dihydro-1H-isoindol-4-yl]oxy}-1-methylpiperidin-3-yl]oxy}piperidin-1-yl)pyrimidin-4-yl]amino}-2-oxo-1-(propan-2-yl)-1,2-dihydroquinolin-3-yl)oxy]-N-methylacetamide] |
| ≥ 100 | CNC(=O)COc1cc2cc(Nc3nc(N4CCC(O[C@@H]5C[C@H](COc6cccc7c6C(=O)N(C6CCC(=O)NC6=O)C7=O)N(C)C5)CC4)ncc3Cl)ccc2n(C(C)C)c1=O (stereo partly drawn) [compound 486, 2-[(6-{[5-chloro-2-(4-{[(3R,5R)-5-({[2-(2,6-dioxopiperidin-3-yl)-1,3-dioxo-2,3-dihydro-1H-isoindol-4-yl]oxy}methyl)-1-methylpyrrolidin-3-yl]oxy}piperidin-1-yl)pyrimidin-4-yl]amino}-2-oxo-1-(propan-2-yl)-1,2-dihydroquinolin-3-yl)oxy]-N-methylacetamide] |
| ≥ 100 | CNC(=O)COc1cc2cc(Nc3nc(N4CCC(O[C@@H]5C[C@H](Oc6cccc7c6C(=O)N(C6CCC(=O)NC6=O)C7=O)CN(C)C5)CC4)ncc3Cl)ccc2n(C(C)C)c1=O (stereo partly drawn) [compound 487, 2-[(6-{[5-chloro-2-(4-{[(3R,5S)-5-{[2-(2,6-dioxopiperidin-3-yl)-1,3-dioxo-2,3-dihydro-1H-isoindol-4-yl]oxy}-1-methylpiperidin-3-yl]oxy}piperidin-1-yl)pyrimidin-4-yl]amino}-2-oxo-1-(propan-2-yl)-1,2-dihydroquinolin-3-yl)oxy]-N-methylacetamide] |
| ≥ 100 | CNC(=O)COc1cc2cc(Nc3nc(N4CCC(CN5CCC6(CC5)CCN(c5ccc(N7CCC(=O)NC7=O)c(OC)c5)C6)CC4)ncc3Cl)ccc2n(C(C)C)c1=O [compound 509, 2-{[6-({5-chloro-2-[4-({2-[4-(2,4-dioxo-1,3-diazinan-1-yl)-3-methoxyphenyl]-2,8-diazaspiro[4.5]decan-8-yl}methyl)piperidin-1-yl]pyrimidin-4-yl}amino)-2-oxo-1-(propan-2-yl)-1,2-dihydroquinolin-3-yl]oxy}-N-methylacetamide] |
| 10 to 50 | CNC(=O)COc1cc2cc(Nc3nc(N4CCC(N5CCC6(CCN(c7cccc8c7C(=O)N(C7CCC(=O)NC7=O)C8=O)C6)CC5)CC4)ncc3Cl)ccc2n(C(C)C)c1=O (stereo not shown) [compound 528, 2-[(6-{[5-chloro-2-(4-{2-[2-(2,6-dioxopiperidin-3-yl)-1,3-dioxo-2,3-dihydro-1H-isoindol-4-yl]-2,8-diazaspiro[4.5]decan-8-yl}piperidin-1-yl)pyrimidin-4-yl]amino}-2-oxo-1-(propan-2-yl)-1,2-dihydroquinolin-3-yl)oxy]-N-methylacetamide] |
| 10 to 50 | CNC(=O)COc1cc2cc(Nc3nc(N4CCC(CN5CCCN(c6ccc(OC)c(N7CCC(=O)NC7=O)c6)CC5)CC4)ncc3Cl)ccc2n(C(C)C)c1=O [compound 530, 2-{[6-({5-chloro-2-[4-({4-[3-(2,4-dioxo-1,3-diazinan-1-yl)-4-methoxyphenyl]-1,4-diazepan-1-yl}methyl)piperidin-1-yl]pyrimidin-4-yl}amino)-2-oxo-1-(propan-2-yl)-1,2-dihydroquinolin-3-yl]oxy}-N-methylacetamide] |
| 10 to 50 | CNC(=O)COc1cc2cc(Nc3nc(N4CCC(CN5CCCN(c6cccc(N7CCC(=O)NC7=O)c6OC)CC5)CC4)ncc3Cl)ccc2n(C(C)C)c1=O [compound 535, 2-{[6-({5-chloro-2-[4-({4-[3-(2,4-dioxo-1,3-diazinan-1-yl)-2-methoxyphenyl]-1,4-diazepan-1-yl}methyl)piperidin-1-yl]pyrimidin-4-yl}amino)-2-oxo-1-(propan-2-yl)-1,2-dihydroquinolin-3-yl]oxy}-N-methylacetamide] |
